Assay results from patent US8173693B2, “Benzenesulfonamide derivatives and pharmaceutical composition thereof” (Purzer Pharmaceutical Co., Ltd., priority 2010, dated 2012).
Where “and” joins values, the source holds several entries; their conditions need not be identical. Equal entries are not always repeated.

What was measured:
[1] = tested on: Human colorectal adenocarcinoma HT-29 cells; assay: MTT assay; type: cell-based; details: 72 hr
Description: (§1) Human Bladder Cancer TSGH cells, Human hepatoblastoma HepG2 cells, Human colorectal adenocarcinoma HT-29 cells, human nasopharyngeal carcinoma KB cells, Human gastric adenocarcinoma AGS cells, Human breast carcinoma MCF-7 cells, lung carcinoma A549 cells, and Human prostate carcinoma PC-3 cells were used in the preliminary cytotoxicity assays of the benzenesulfonamide derivatives of the present invention, and the inhibition activity against the tumor cells was evaluated.
(§2) All cell lines were maintained in RPMI 1640 supplied with 10% fetal bovine serum and maintained in a humidified chamber at 37° C. containing 5% CO2. Then, all cell lines were treated with compounds for 72 hr and subsequently incubated with 0.4 mg/mL of MTT at 37° C. for 2 hr. The medium was removed, and DMSO was added to dissolve MTT precipitate. Cell proliferation was determined by measuring the optical density at 540 nm using a Thermomax microplate reader (Molecular Devices, Sunnyvale, Calif.), and the IC50 values of the benzenesulfonamide derivatives of the present invention were calculated.

[2] = tested on: Human hepatoblastoma HepG2 cells; assay: MTT assay; type: cell-based; details: 72 hr, read-out: IC50 HepaG2
Description: as §1, §2

[3] = tested on: Human Bladder Cancer TSGH cells; assay: MTT assay; type: cell-based; details: 72 hr
Description: as §1, §2

[4] = tested on: human nasopharyngeal carcinoma KB cells; assay: MTT assay; type: cell-based; details: Homo sapiens, KB; MTT assay, 72 hr
Description: as §1, §2

tumor cells = assay: Preliminary cytotoxicity assays (MTT, SRB), tumor cell panel; type: cell-based; details: comparison over Tables 1-4
Description: as §1, §2
All cell lines were maintained in RPMI 1640 supplied with 10% fetal bovine serum into 96-well microtiter plates and maintained in a humidified chamber at 37° C. containing 5% CO2. After 24 hr, cell lines in partial wells were fixed in situ with 10% trichloroacetic acid (TCA) to represent a measurement at the time of drug addition (T0). Then, cell lines in other wells were incubated with the benzenesulfonamide derivatives of the present invention for an additional 48 hr, and fixed in situ with 10% TCA to represent a measurement at the time of stopping reaction (Tx). […] Cell proliferation was determined by measuring the optical density at 515 nm using a Thermomax microplate reader (Molecular Devices, Sunnyvale, Calif.). The half-inhibition concention (GI50) of the benzenesulfonamide derivatives of the present invention was obtained from the detected optical density.

4T1-Luc cells [5] = assay: In vivo evaluation, short-time treatment, mice implanted with 4T1-Luc cells; details: short-time treatment, GM119 25 mg/kg, Taxol 10 mg/kg
Description: GM119 (25 mg/kg) was applied to a mouse implanted with 4T1-Luc cells for a short time, and then Taxol (10 mg/kg) was applied thereto to observe the effect of GM119 on the 4T1-Luc cells.
(§3) A suspension of 4T1-Luc cells in matrigel was injected into the breast adipocyte to obtain mice implanted with luciferase tumor cells. […] When the size of the tumor cells was achieved to 200-500 mm^3, the mice were divided into 2 groups, and the number of the mice in each group is ≧5. Then, 0 or 25 mg/kg of GM119 was abdominal-injected into the mice for 5 days, wherein GM119 was dissolved in cremophor, and the volume of injection to each mouse is 50 μl. Then, 0 or 10 mg/kg of Taxol was abdominal-injected into the mice for every 2 days until death of the mice. The weight and the number of the mice were recorded every day to analyze the change on the weight and the survival time of the mice. After the drugs were applied to the mice, the size of the tumor cells in the mice was evaluated with bioluminescence every two days.

4T1-Luc cells [6] = assay: In vivo evaluation, long-time treatment, mice implanted with 4T1-Luc cells
Description: GM119 (25 mg/kg) and Taxol (10 mg/kg) were simultaneously applied to a mouse implanted with 4T1-Luc cells for a long time to observe the effect of GM119 on the 4T1-Luc cells.
as §3, with “Then, 0/0, 0/25, 10/[…],” for “Then, 0”, “or 10/0” for “or 25”, “of Taxol/GM119” for “of GM119”, “mice every two days until death of the mice,” for “mice for 5 days,”, “GM119 and Taxol were” for “GM119 was”, “μl.” for “μl. Then, 0 or 10 mg/kg of Taxol was abdominal-injected into the mice for every 2 days until death of the mice.”

KB cells = details: Owa et al., J. Med. Chem. 1999, 42, 3789-3799; read-out: IC50 against KB cells; cited from earlier work
[7] = tested on: P388 murine leukemia cells; details: Owa et al., J. Med. Chem. 1999, 42, 3789-3799; read-out: IC50 against P388 murine leukemia cells; cited from earlier work
colon 38 cells = details: Owa et al., J. Med. Chem. 1999, 42, 3789-3799; read-out: IC50 against colon 38 cells; cited from earlier work
[8] = background statement; cited from earlier work

Row | Structure (SMILES) | IC50 [1] | IC50 [2] | IC50 [3] | IC50 [4] | melting point | inhibitory activity against the tumor cells (in words) (tumor cells) | further results
1 | O=[N+]([O-])c1ccc(/N=N/c2c[nH]c3c(NS(=O)(=O)c4ccc(Cl)cc4)cccc23)cc1 [Compound 7a, 4-Chloro-N-[3-(4-nitrophenylazo)-1H-indol-7-yl]benzenesulfonamide] | 5.9 µM | 9.1 µM | 3.6 µM | 4.5 µM | 217 to 218 °C | higher than that of the compound 5d | 
2 | O=S(=O)(Nc1cccc2c(/N=N/c3ccccc3)c[nH]c12)c1ccc(Cl)cc1 [Compound 7c, 4-Chloro-N-(3-phenylazo-1H-indol-7-yl)benzenesulfonamide] | 13.8 µM | 28.4 µM | 14.2 µM | 15.3 µM | 110 to 111 °C | higher than that of the compound 5d | 
3 | CC(=O)O[C@H]1C(=O)[C@@]2(C)[C@H]([C@H](OC(=O)c3ccccc3)[C@]3(O)C[C@H](OC(=O)[C@H](O)[C@@H](NC(=O)c4ccccc4)c4ccccc4)C(C)=C1C3(C)C)[C@]1(OC(C)=O)CO[C@@H]1C[C@@H]2O [Taxol, reference compound] |  |  |  |  |  |  | growth of the tumor cells (bioluminescence) (4T1-Luc cells [5]): the growth of the tumor cells can be inhibited; survival of the mice (4T1-Luc cells [6]; long time: Taxol 10 mg/kg and/or GM119 25 mg/kg abdominal-injected every two days until death, FIG. 3): the survival of the mice can be increased; growth of the tumor cells (bioluminescence) (4T1-Luc cells [6]; long-time treatment): the growth of the tumor cells can be inhibited
4 | NS(=O)(=O)c1ccc(S(=O)(=O)Nc2cccc3c(Cl)c[nH]c23)cc1 [Compound E7070] |  |  |  |  |  |  | IC50 (KB cells): 11.4 µM; IC50 [7]: 1.2 µM; IC50 (colon 38 cells): 0.26 µM and 0.3 µM
5 | COc1ccc(S(=O)(=O)Nc2cccnc2Nc2ccc(O)cc2)cc1 [Compound E7010] |  |  |  |  |  |  | anti-cancer activity in mice [8]: shows great effect
